The values that follow come from article PMC2757182 (The Journal of Biological Chemistry, 2009).

Holding throughout (assay): tryptophan fluorescence quenching
Assay type in all cases: binding

Assay [1] addresses T1, GUN4 Δ1–69 (GENOMES UNCOUPLED 4) (Arabidopsis thaliana, UniProt Q9LX31).
T1 sequence (Q9LX31 70-265): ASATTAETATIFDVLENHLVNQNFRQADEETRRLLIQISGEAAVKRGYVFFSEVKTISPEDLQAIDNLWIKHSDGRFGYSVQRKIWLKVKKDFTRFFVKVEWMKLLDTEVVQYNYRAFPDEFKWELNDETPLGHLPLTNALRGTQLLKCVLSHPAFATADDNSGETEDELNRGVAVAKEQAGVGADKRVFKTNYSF

Assay [2] has as its target T2, GUN4 Δ1–69 (GENOMES UNCOUPLED 4) (Arabidopsis thaliana, UniProt Q9LX31, V123A).
T2 sequence (Q9LX31 70-265 V123A): T1 sequence (Q9LX31 70-265) with V54A

The target of assay [3] is T3, GUN4 Δ1–69 (GENOMES UNCOUPLED 4) (Arabidopsis thaliana, UniProt Q9LX31, R211A).
T3 sequence (Q9LX31 70-265 R211A): T1 sequence (Q9LX31 70-265) with R142A

Assay [4] addresses T4, GUN4 Δ1–69 (GENOMES UNCOUPLED 4) (Arabidopsis thaliana, UniProt Q9LX31, F191A).
T4 sequence (Q9LX31 70-265 F191A): T1 sequence (Q9LX31 70-265) with F122A

SMILES strings stand for the structures. Residue numbers refer to the chain shown, from its start.

As a reminder, the Kd is the constant that tells how readily two partners part at equilibrium. Low readings indicate higher affinity, high ones lower affinity.

In the case of `C=Cc1c(C)c2cc3nc(c4c5[nH]c(cc6nc(cc1[nH]2)C(C)=C6CC)c(C)c5C(=O)[C@@H]4C(=O)OC)[C@@H](CCC(=O)O)[C@@H]3C` [Pheophorbide a], the Kd in assay [1] is 3.8 ± 0.33 µM.

With `C=CC1=C(C)C2=Cc3c(C=C)c(C)c4[n]3[Fe]([Cl])[n]3c(c(C)c(CCC(=O)O)c3=CC3=NC(=C4)C(C)=C3CCC(=O)O)=CC1=N2` [Hemin], in assay [1], the equilibrium dissociation constant (Kd) was found to be 8.1 ± 0.75 µM. As to `O=C(O)CCC1=C(CC(=O)O)c2cc3[nH]c(cc4nc(cc5[nH]c(cc1n2)c(CC(=O)O)c5CCC(=O)O)C(CCC(=O)O)=C4CC(=O)O)c(CC(=O)O)c3CCC(=O)O` [Uroporphyrin III], in assay [1], the Kd amounted to 10 ± 0.57 µM.

Molecule `C=CC1=C(C)c2cc3[nH]c(cc4nc(cc5[nH]c(cc1n2)c(C)c5CCC(=O)O)C(CCC(=O)O)=C4C)c(C)c3C=C` [PPIX] came in with a Kd in assay [1] of 11 ± 0.5 µM. In the case of `CC1=C(CCC(=O)O)c2cc3nc(cc4[nH]c(cc4C)cc4[nH]c(cc1n2)cc4C)C(C)=C3CCC(=O)O` [DPIX], the Kd in assay [2] was 9.6 ± 0.44 µM; in assay [3], 14 ± 0.83 µM; in assay [4] it was 12 ± 0.77 µM; in assay [1], 6.4 ± 0.21 µM. With `CC1=C(CCC(=O)O)c2cc3nc(cc4[nH]c(cc5[nH]c(cc1n2)c(C)c5CCC(=O)O)c(CCC(=O)O)c4C)C(CCC(=O)O)=C3C` [Coproporphyrin III], the Kd in assay [1] is 15 ± 0.82 µM.
